Source: patent US9802941B2, “Compounds and methods for inhibiting histone demethylases” (Gilead Sciences, Inc., priority 2014, dated 2017)
Like-named read-outs stand apart in the source and are kept apart here.

Columns and labels:
Assay type in all cases: biochemical
[1] = molecular target: T1, KDM5B (PLU-1) (Homo sapiens, UniProt Q9UGL1); assay: Histone lysine demethylase AlphaLISA assay, KDM5B
T1 construct: BRIC; 1-809; E. coli; host or cells: E. coli
T1 sequence (Q9UGL1 1-809): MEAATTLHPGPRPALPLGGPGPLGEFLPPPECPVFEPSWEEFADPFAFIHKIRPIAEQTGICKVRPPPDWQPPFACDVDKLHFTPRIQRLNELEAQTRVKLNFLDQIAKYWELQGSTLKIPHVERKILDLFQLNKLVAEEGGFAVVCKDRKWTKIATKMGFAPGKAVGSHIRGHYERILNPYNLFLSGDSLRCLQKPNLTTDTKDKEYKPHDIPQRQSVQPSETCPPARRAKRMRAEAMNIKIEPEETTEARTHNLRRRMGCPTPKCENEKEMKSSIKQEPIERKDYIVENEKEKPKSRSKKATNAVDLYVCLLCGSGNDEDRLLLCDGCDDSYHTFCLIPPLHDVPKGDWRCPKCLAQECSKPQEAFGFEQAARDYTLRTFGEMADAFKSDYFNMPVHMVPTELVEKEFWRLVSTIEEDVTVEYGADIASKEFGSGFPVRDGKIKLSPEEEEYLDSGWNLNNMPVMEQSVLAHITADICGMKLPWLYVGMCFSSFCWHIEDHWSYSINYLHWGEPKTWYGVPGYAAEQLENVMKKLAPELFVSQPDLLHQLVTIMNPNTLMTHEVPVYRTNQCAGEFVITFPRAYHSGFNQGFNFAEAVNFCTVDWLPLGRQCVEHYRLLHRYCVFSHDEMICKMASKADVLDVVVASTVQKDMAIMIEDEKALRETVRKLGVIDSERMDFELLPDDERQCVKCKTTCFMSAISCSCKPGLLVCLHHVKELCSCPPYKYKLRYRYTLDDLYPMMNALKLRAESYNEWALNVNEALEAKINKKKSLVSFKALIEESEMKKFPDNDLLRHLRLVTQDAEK
Outline: (§1)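 Enzyme was preincubated in buffer (50 mM Hepes pH 7.4-8.0, 0.003-0.01% Tween-20, 0.1% BSA, 5 μM (NH4)2Fe(SO4)2), then added to compound in DMSO and incubated 10 minutes before substrate. After reaction at room temperature, acceptor and streptavidin donor beads were added and AlphaLISA signal read.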

[2] = molecular target: T2, KDM2B (FBXL10) (Homo sapiens, UniProt Q8NHM5); assay: Histone lysine demethylase AlphaLISA assay, KDM2B
T2 construct: KDM2B; BPS,; 1-650; Bac; purchased BPS Bioscience, US; host or cells: baculovirus system
T2 sequence (Q8NHM5 1-650): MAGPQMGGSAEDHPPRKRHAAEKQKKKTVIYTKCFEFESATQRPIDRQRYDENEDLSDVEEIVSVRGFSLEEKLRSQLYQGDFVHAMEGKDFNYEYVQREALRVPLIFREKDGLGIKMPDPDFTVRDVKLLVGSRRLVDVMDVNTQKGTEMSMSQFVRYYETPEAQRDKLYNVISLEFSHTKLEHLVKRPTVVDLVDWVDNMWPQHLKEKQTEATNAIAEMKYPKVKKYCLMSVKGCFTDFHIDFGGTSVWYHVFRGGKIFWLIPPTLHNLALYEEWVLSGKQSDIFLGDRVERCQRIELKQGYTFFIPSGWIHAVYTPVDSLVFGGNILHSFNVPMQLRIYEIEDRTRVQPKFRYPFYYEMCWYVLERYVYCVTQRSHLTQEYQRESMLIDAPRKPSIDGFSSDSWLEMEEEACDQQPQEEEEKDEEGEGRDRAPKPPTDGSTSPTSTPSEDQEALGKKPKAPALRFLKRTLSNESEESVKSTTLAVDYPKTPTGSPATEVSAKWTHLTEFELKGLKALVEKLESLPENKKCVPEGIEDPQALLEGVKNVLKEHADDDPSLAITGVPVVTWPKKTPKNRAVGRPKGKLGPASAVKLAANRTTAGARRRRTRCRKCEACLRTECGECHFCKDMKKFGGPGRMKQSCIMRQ
Outline: as §1

[3] = molecular target: T3, PHF8 (KDM7) (Homo sapiens, UniProt Q9UPP1); assay: Histone lysine demethylase AlphaLISA assay, PHF8
T3 construct: KDM7 (PHF8); BRIC; 1-1322; Bac
Outline: as §1

[4] = molecular target: T4, KDM6A (UTX) (Homo sapiens, UniProt O15550); assay: Histone lysine demethylase AlphaLISA assay, KDM6A
T4 construct: KDM6A (UTX); BRIC; 919-1401; E. coli; host or cells: E. coli
Description: The compounds of the application, or a pharmaceutically acceptable salt, or solvate, or prodrug thereof, are tested in an in vitro AlphaLISA assay. Enzymes are dissolved in enzyme buffer and incubated before they are added to DMSO solutions of compounds of the application, or a pharmaceutically acceptable salt, or solvate, or prodrug thereof, in enzyme buffer. The reaction mixture is then incubated for an additional period of time before substrate solution is added and then the resulting mixture again incubated. Acceptor beads and suspended Epigenetic Buffer from stock are added and the suspension is again incubated before a suspension of streptavidin donor beads in Epigenetic Buffer is added. After an additional period of incubation, the plates are read.
The ability of compounds of the application to inhibit the histone lysine demethylase activity in vitro of different enzymes was determined.
The reaction mixture was incubated for another 10 minutes before 5 μL of substrate solution was added and the resulting mixture was then incubated at room temperature. […] After incubation at room temperature in the dark, the plates were read.
Enzyme Buffer: 50 mM Hepes (pH 7.4-8.0), 0.003-0.01% Tween-20, 0.1% BSA; 5 μM (NH4)2Fe(SO4)2.

[5] = molecular target: T5, KDM4C (JMJD2C) (Homo sapiens, UniProt Q9H3R0); assay: Histone lysine demethylase AlphaLISA assay, KDM4C
T5 construct: KDM4C; BRIC, Denmark; 1-349; E. coli; host or cells: E. coli
T5 sequence (Q9H3R0 1-349): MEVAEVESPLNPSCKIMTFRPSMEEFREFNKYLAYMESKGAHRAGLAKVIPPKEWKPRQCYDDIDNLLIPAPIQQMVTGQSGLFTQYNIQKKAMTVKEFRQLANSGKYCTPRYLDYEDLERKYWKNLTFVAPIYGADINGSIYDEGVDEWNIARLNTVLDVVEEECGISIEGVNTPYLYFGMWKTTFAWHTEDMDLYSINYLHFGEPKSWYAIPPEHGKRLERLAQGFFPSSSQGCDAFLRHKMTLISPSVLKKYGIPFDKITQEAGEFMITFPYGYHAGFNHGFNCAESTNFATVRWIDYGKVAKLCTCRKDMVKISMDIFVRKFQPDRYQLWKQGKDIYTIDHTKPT
Outline: as §1

[6] = AlphaLISA assay, read-out: HDME Inhibition KDM5B (IC50)
[7] = AlphaLISA, in vitro, read-out: HDME Inhibition KDM5B
[8] = AlphaLISA, in vitro, read-out: HDME Inhibition KDM2B
[9] = AlphaLISA, in vitro, read-out: HDME Inhibition PHF8
[10] = AlphaLISA assay, read-out: HDME Inhibition KDM6A (IC50)
[11] = AlphaLISA, in vitro, read-out: HDME Inhibition KDM6A
[12] = AlphaLISA assay, read-out: HDME Inhibition KDM4C (IC50)
[13] = AlphaLISA, in vitro, read-out: HDME Inhibition KDM4C
[14] = AlphaLISA assay, read-out: HDME Inhibition PHF8 (IC50)

T4 sequence (O15550 919-1401): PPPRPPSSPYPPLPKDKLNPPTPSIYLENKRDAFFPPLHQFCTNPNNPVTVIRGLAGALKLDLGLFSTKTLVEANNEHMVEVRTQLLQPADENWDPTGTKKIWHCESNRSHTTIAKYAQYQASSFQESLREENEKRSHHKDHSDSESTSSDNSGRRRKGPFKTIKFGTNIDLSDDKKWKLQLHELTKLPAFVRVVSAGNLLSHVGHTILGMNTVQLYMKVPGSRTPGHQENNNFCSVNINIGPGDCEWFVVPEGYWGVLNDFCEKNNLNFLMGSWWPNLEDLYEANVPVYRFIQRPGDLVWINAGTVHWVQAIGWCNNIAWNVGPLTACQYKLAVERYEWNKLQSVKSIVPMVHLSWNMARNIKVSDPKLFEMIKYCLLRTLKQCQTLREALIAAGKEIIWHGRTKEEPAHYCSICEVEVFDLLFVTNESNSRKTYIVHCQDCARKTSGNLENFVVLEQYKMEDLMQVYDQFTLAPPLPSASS
T3 sequence (Q9UPP1 37-440 limits assumed): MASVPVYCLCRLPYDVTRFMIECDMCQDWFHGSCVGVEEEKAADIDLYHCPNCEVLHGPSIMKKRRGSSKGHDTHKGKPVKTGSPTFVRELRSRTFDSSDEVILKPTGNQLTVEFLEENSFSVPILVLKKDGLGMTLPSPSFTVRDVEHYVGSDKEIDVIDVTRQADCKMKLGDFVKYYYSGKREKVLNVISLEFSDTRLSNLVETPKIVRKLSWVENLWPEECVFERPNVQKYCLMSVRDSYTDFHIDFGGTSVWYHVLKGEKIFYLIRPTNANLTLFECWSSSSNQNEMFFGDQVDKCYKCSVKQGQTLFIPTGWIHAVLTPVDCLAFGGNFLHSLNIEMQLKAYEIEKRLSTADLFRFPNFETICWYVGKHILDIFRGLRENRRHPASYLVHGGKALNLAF

Row | Structure (SMILES) | IC50 [1, 6] | IC50 [1, 7] | IC50 [2, 8] | IC50 [3, 9] | IC50 [4, 10] | IC50 [4, 11] | IC50 [5, 12] | IC50 [5, 13] | IC50 [3, 14] | IC50 [1] | IC50 ([2]; AlphaLISA assay, read-out: HDME Inhibition KDM2B (IC50))
1 | Cc1cc(C(=O)O)cc(CNCc2nccn2Cc2ccc(F)cc2)n1 [Compound 1, 2-{[({1-[(4-fluorophenyl)methyl]-1H-imidazol-2-yl}methyl)amino]methyl}-6-methylpyridine-4-carboxylic acid] | > 10 µM | > 10 µM | 0.431 µM | 0.352 µM | > 10 µM | > 10 µM | > 10 µM | > 10 µM | – | – | –
2 | COCc1cc(C(=O)O)cc(CNCc2nccn2Cc2ccc(F)cc2)n1 [Compound 2, 2-{[({1-[(4-fluorophenyl)methyl]-1H-imidazol-2-yl}methyl)amino]methyl}-6-(methoxymethyl)pyridine-4-carboxylic acid] | > 10 µM | > 10 µM | 2.94 µM | > 10 µM | > 10 µM | > 10 µM | > 10 µM | > 10 µM | > 10 µM | – | –
3 | Cc1cc(C(=O)O)cc(CNCCc2ccccn2)n1 [Compound 3, 2-methyl-6-({[2-(pyridin-2-yl)ethyl]amino}methyl)pyridine-4-carboxylic acid] | > 10 µM | > 10 µM | 4.65 µM | > 10 µM | > 10 µM | > 10 µM | > 10 µM | > 10 µM | > 10 µM | – | –
4 | CCc1cnc(CNCc2cc(C(=O)O)cc(C)n2)n1Cc1ccc(F)cc1 [Compound 4, 2-{[({5-ethyl-1-[(4-fluorophenyl)methyl]-1H-imidazol-2-yl}methyl)amino]methyl}-6-methylpyridine-4-carboxylic acid] | > 10 µM | > 10 µM | 0.03 µM | 0.234 µM | > 10 µM | > 10 µM | > 10 µM | > 10 µM | – | – | –
5 | C/C=C/c1cc(C(=O)O)cc(CNCc2nccn2Cc2ccc(F)cc2)n1 [Compound 5, 2-{[({1-[(4-fluorophenyl)methyl]-1H-imidazol-2-yl}methyl)amino]methyl}-6-[(1E)-prop-1-en-1-yl]pyridine-4-carboxylic acid] | > 10 µM | > 10 µM | 1.6 µM | 3.76 µM | > 10 µM | > 10 µM | > 10 µM | > 10 µM | – | – | –
6 | CC#Cc1cc(C(=O)O)cc(CNCc2nccn2Cc2ccc(F)cc2)n1 [Compound 6, 2-{[({1-[(4-fluorophenyl)methyl]-1H-imidazol-2-yl}methyl)amino]methyl}-6-(prop-1-yn-1-yl)pyridine-4-carboxylic acid] | – | – | 0.708 µM | 0.353 µM | > 10 µM | > 10 µM | > 10 µM | > 10 µM | – | 3.35 µM | –
7 | Cc1cc(C(=O)O)cc(CN[C@H]2CCc3cccnc32)n1 [Compound 7, 2-({[(7S)-5H,6H,7H-cyclopenta[b]pyridin-7-yl]amino}methyl)-6-methylpyridine-4-carboxylic acid] | – | 1.23 µM | 7.1 µM | > 10 µM | > 10 µM | > 10 µM | > 10 µM | > 10 µM | > 10 µM | – | –
8 | Cc1cc(C(=O)O)cc(CNCc2ncc(C(C)C)n2Cc2ccc(F)cc2)n1 [Compound 8, 2-{[({1-[(4-fluorophenyl)methyl]-5-(propan-2-yl)-1H-imidazol-2-yl}methyl)amino]methyl}-6-methylpyridine-4-carboxylic acid] | > 10 µM | > 10 µM | 0.15 µM | 0.384 µM | > 10 µM | > 10 µM | > 10 µM | > 10 µM | – | – | –
9 | CCC(C)c1cnc(CNCc2cc(C(=O)O)cc(C)n2)n1Cc1ccc(F)cc1 (stereo not shown) [Compound 9, 2-[({[5-(butan-2-yl)-1-[(4-fluorophenyl)methyl]-1H-imidazole-2-yl]methyl}amino)methyl]-6-methyl-pyridine-4-carboxylic acid] | – | – | > 10 µM | > 10 µM | > 10 µM | > 10 µM | – | 0.299 µM | > 10 µM | 0.714 µM | > 10 µM
